Data as given in patent publication US20250040539A1, “COMPOSITION COMPRISING AN ANTIMICROBIAL AGENT AND A CARBOXAMIDE” (BASF SE, priority 2021, published 2025).

Experiments:
Format in all cases: cell-based
[1] = test system: bacterial mix: Escherichia coli DSM 1576, Alcaligenes faecalis DSM 13644, Pseudomonas aeruginosa ATCC 15442, Staphylococcus aureus ATCC 6538, Burkholderia …; assay: Preservative activity of a basic composition (10% PG in water, pH 7) with 1,2-benzisothiazol-3(2H)-one (BIT) against bacterial contamination (Example 2.3); details: 10% PG + 0.004% BIT, no amide (Comparative 2); day 7
Description: (§1) An aqueous composition of pH 7 comprising 10% by weight of propyleneglycol (PG) as organic solvent, 0.004% by weight of 1,2-benzisothiazol-3(2H)-one (BIT) as antimicrobial and 0.04% by weight of the amide listed in the below table was tested for its preserving activity against bacterial contamination (the percentages are weight percent and relate to the total weight of the composition). For this purpose, the samples were contaminated with a bacterial mix consisting of: • Escherichia coli DSM 1576 • Alcaligenes faecalis DSM 13644 • Pseudomonas aeruginosa ATCC 15442 • Staphylococcus aureus ATCC 6538 • Burkholderia cepacia DSM 7288 • Pseudomonas putida DSM 12735
(§2) The samples were inoculated with the bacterial mix at day 0 to obtain 10E+06 to 10E+07 CFU/ml inoculation in the test sample and stored at 25° C. for 7 days.
(§3) CFU was determined at day 7.
Any CFU value at day 7 (d7) obtained with a sample according to the invention containing BIT and amide (10% PG+0.004% BIT+Amide in water) lower than the respective value of the “comparative 2” example (10% by weight of propyleneglycol+0.004% by weight of 1,2-benzisothiazol-3(2H)-one (BIT) in water) indicates a better performance.

[2] = test system: fungal mix: Aspergillus brasiliensis DSM 1988, Rhodotorula mucilaginosa DSM 13621, Yarrowia lipolytica DSM 8218; assay: Preservative activity in a manual dishwashing composition (MDW, pH 7.1) with 1.0% 2-phenoxyethanol against fungal mix (Example 1.2); details: for d7 [CFU/ml]: day 7; for d14 [CFU/ml]: day 14; for d21 [CFU/ml]: day 21
Description: (§4) A manual dish wash detergent (MDW) of pH 7.1 containing the following components was used:
The samples were contaminated with a fungal mix consisting of: • Aspergillus brasiliensis DSM 1988 • Rhodotorula mucilaginosa DSM 13621 • Yarrowia lipolytica DSM 8218
The samples were inoculated with the fungal mix at day 0 and 7 to obtain 1-3×10E+05 CFU/ml inoculation in the test sample consisting of the above-defined dish wash detergent MDW and stored at 25° C. for 21 days. CFU was determined before re-inoculation at day 7, and on days 14 and 21.
Any CFU value at d7, d14 or d21 obtained with a MDW sample of the invention containing 2-phenoxyethanol and amide (MDW+1.0% PE+x % of Amide) lower than the respective value of the comparative example (MDW+1.0% by weight of 2-phenoxyethanol) indicates a better performance of the inventive combination of 2-phenoxyethanol with the amide.

[3] = test system: bacterial mix: Escherichia coli DSM 1576, Alcaligenes faecalis DSM 13644, Pseudomonas aeruginosa ATCC 15442, Staphylococcus aureus ATCC 6538, Burkholderia …; assay: Preservative activity in a manual dishwashing composition (MDW, pH 7.1) with 2.0% 2-phenoxyethanol against bacterial mix (Example 2.4); details: for d7 [CFU/ml]: day 7; for d14 [CFU/ml]: day 14; for d21 [CFU/ml]: day 21
Description: as §4
(§5) The samples were contaminated with a bacterial mix consisting of: • Escherichia coli DSM 1576 • Alcaligenes faecalis DSM 13644 • Pseudomonas aeruginosa ATCC 15442 • Staphylococcus aureus ATCC 6538 • Burkholderia cepacia DSM 7288 • Pseudomonas putida DSM 12735
The samples were inoculated with the bacterial mix at day 0 and 7 to obtain 10E+06 to 10E+07 CFU/ml inoculation in the test sample and stored at 25° C. for 21 days. CFU was determined before re-inoculation at day 7 and on days 14 and 21.
Any CFU value at day 7 (d7), day 14 (d14) or day 21 (d21) obtained with a sample according to the invention containing 2-phenoxyethanol and amide (MDW+2.0% PE+x % Amide) lower than the respective value of the “comparative 2” example (MOW+2.0% by weight of 2-phenoxyethanol) indicates a better performance.

[4] = test system: fungal mix (including yeasts and molds): Aspergillus brasiliensis DSM 1988, Rhodotorula mucilaginosa DSM 13621, Yarrowia lipolytica DSM 8218; assay: Preservative activity of a basic composition (10% PG in water, pH 7) with 2-phenoxyethanol against fungal contamination (Example 1.1); details: 10% PG + 0.36% PE + 0.04% Amide in water, pH 7, 25° C.; for d7 [CFU/ml]: fungal mix inoculated at day 0, 7 and 14 (1-3x10E+05 CFU/ml), day 7 before re-inoculation; for d14 [CFU/ml] / d21 [CFU/ml]: fungal mix inoculated at day 0, 7 and 14; for d14 [CFU/ml]: day 14 before re-inoculation; for d21 [CFU/ml]: day 21
Description: An aqueous composition of pH 7 comprising 10% by weight of propyleneglycol (PG) as organic solvent, 0.36% by weight of 2-phenoxyethanol (PE) as antimicrobial and 0.04% by weight of the amide listed in the below table was tested for its preserving activity against fungal contamination (the percentages are weight percent and relate to the total weight of the composition). For this purpose, the samples were contaminated with a fungal mix (including yeasts and molds) consisting of: • Aspergillus brasiliensis DS M 1988 • Rhodotorula mucilaginosa DSM 13621 • Yarrowia lipolytica DS M 8218
To control the efficacy, following control compositions were tested: • “Reference”, consisting of only 10% by weight of propylene glycol in water • “Comparative 1” containing 10% by weight of propylene glycol and amide in the given concentration, but no 2-phenoxyethanol • […] in the given concentration, but no amide.
The samples were inoculated with the fungal mix at day 0, 7 and 14 to obtain a cell density in the range of 1-3×10E+05 CFU/ml (CFU=colony forming units) in the test samples (compositions listed in the below table) and stored at 25° C. for 21 days.
(§6) CFU was determined before re-inoculation at days 7 and 14, and on day 21.

[5] = test system: bacterial mix: Escherichia coli DSM 1576, Alcaligenes faecalis DSM 13644, Pseudomonas aeuginosa ATCC 15442, Staphylococcus aureus ATCC 6538, Burkholderia …; assay: Preservative activity of a basic composition (10% PG in water, pH 7) with 2-phenoxyethanol against bacterial contamination (Example 2.1); details: 10% PG + 0.36% PE + 0.04% amide; for d7 [CFU/ml]: day 7; for d14 [CFU/ml]: day 14; for d21 [CFU/ml]: day 21
Description: as §1, with “0.36%” for “0.004%”, “2-phenoxyethanol (PE)” for “1,2-benzisothiazol-3(2H)-one (BIT)”, “(the weight” for “(the”, “percentages” for “percentages are weight percent and”, “aeuginosa” for “aeruginosa”
The samples were inoculated with the bacterial mix at day 0, 7 and 14 to obtain 10E+06 to 10E+07 CFU/ml inoculation in the test samples (compositions listed in the below table) consisting of 10% by weight of propylene glycol in water and stored at 25° C. for 21 days.
as §6

[6] = test system: bacterial mix: Escherichia coli DSM 1576, Alcaligenes faecalis DSM 13644, Pseudomonas aeruginosa ATCC 15442, Staphylococcus aureus ATCC 6538, Burkholderia …; assay: Preservative activity in a manual dishwashing composition (MDW, pH 7.1) with 1.0% 2-phenoxyethanol against bacterial mix (Example 2.5); details: MDW + 1.0% PE + 1.0% amide
Description: A manual dish wash detergent (MOW) of pH 7.1 containing the following components was used:
as §5
The samples were inoculated with the bacterial mix at day 0 and 7 to obtain 10E+06 to 10E+07 CFU/ml inoculation in the test sample and stored at 25° C. for 21 days. CFU was determined before re-inoculation at day 7 and on day 21.
Any CFU value at day 7 (d7) or day 21 (d21) obtained with a sample according to the invention containing 2-phenoxyethanol and amide (MDW+1.0% PE+1.0% Amide) lower than the respective value of the comparative example (MDW+1% by weight of 2-phenoxyethanol) indicates a better performance.

[7] = test system: bacterial mix: Escherichia coli DSM 1576, Alcaligenes faecalis DSM 13644, Pseudomonas aeruginosa ATCC 15442, Staphylococcus aureus ATCC 6538, Burkholderia …; assay: Preservative activity of a basic composition (10% PG in water, pH 7) with 4,4'-dichloro-2-hydroxydiphenyl ether (diclosan) against bacterial contamination (Example 2.2); details: day 7
Description: as §1, with “0.015%” for “0.004%”, “4,4′-dichloro-2-hydroxydiphenyl ether (diclosan)” for “1,2-benzisothiazol-3(2H)-one (BIT)”, “0.04 or 0.1%” for “0.04%”, “amides” for “amide”, “(the weight” for “(the”, “percentages” for “percentages are weight percent and”
as §2, §3
Any CFU value at day 7 (d7) obtained with a sample according to the invention containing diclosan and amide (10% PG+0.015% diclosan+Amide in water) lower than the respective value of the “comparative 3” example (10% by weight of propyleneglycol+0.015% by weight of 4,4′-dichloro-2-hydroxydiphenyl ether (diclosan) in water) indicates a better performance.

[8] = MDW + 0.25% amide, no PE (Comparative 1c)
[9] = MDW + 5.0% amide, no PE (Comparative 1a)

## O=c1[nH]sc2ccccc12 [BIT, 1,2-benzisothiazol-3(2H)-one, reference compound]
[1]
  d7 [CFU/ml]: >100,000 CFU/ml

## CCCCC(CC)CNC(=O)/C=C\C(=O)O (stereo not drawn) [Maleic acid N-2-ethylhexyl-amide]
[2]; MDW + 1.0% PE + 0.6% amide
  d7 [CFU/ml]: 14,500 CFU/ml
  d14 [CFU/ml]: 2,900 CFU/ml
  d21 [CFU/ml]: 225 CFU/ml
[3]; [8]
  d7 [CFU/ml]: >100,000 CFU/ml
  d14 [CFU/ml]: >100,000 CFU/ml
  d21 [CFU/ml]: >100,000 CFU/ml
[3]; MDW + 1.0% amide, no PE
  d7 [CFU/ml]: >100,000 CFU/ml
  d14 [CFU/ml]: >100,000 CFU/ml
  d21 [CFU/ml]: >100,000 CFU/ml
[3]; MDW + 2.0% PE + 0.25% amide
  d7 [CFU/ml]: <10 CFU/ml
  d14 [CFU/ml]: <10 CFU/ml
  d21 [CFU/ml]: <10 CFU/ml
[3]; MDW + 2.0% PE + 1.0% amide
  d7 [CFU/ml]: <10 CFU/ml
  d14 [CFU/ml]: <10 CFU/ml
  d21 [CFU/ml]: <10 CFU/ml
[3]; MDW + 2.0% PE + 5.0% amide
  d7 [CFU/ml]: <10 CFU/ml
  d14 [CFU/ml]: <10 CFU/ml
  d21 [CFU/ml]: <10 CFU/ml
[3]; [9]
  d7 [CFU/ml]: >100,000 CFU/ml
  d14 [CFU/ml]: >100,000 CFU/ml
  d21 [CFU/ml]: >100,000 CFU/ml
[4]
  d7 [CFU/ml]: 875 CFU/ml
  d14 [CFU/ml]: 8,500 CFU/ml
  d21 [CFU/ml]: 18,500 CFU/ml
[5]
  d7 [CFU/ml]: 545 CFU/ml
  d14 [CFU/ml]: 22,000 CFU/ml
  d21 [CFU/ml]: 20,500 CFU/ml

## C=CCCCCCCCC(=O)N(C)C [N,N-dimethyl 9-decenoylamide]
[6]; day 7
  d7 [CFU/ml]: <10 CFU/ml
[6]; day 21
  d21 [CFU/ml]: <10 CFU/ml

## Oc1cc(Cl)ccc1Oc1ccc(Cl)cc1 [diclosan, 4,4′-dichloro-2-hydroxydiphenyl ether, reference compound]
[7]; 10% PG + 0.015% diclosan, no amide (Comparative)
  d7 [CFU/ml]: >100,000 CFU/ml

## CCCCCCCCCC(=O)N1CCOCC1 [n-Decanoyl-morpholine]
[2]; MDW + 1.0% PE + 1.0% amide
  d7 [CFU/ml]: 1,200 CFU/ml
  d14 [CFU/ml]: 305 CFU/ml
  d21 [CFU/ml]: 245 CFU/ml
[4]
  d7 [CFU/ml]: 55 CFU/ml
  d14 [CFU/ml]: <10 CFU/ml
  d21 [CFU/ml]: 35 CFU/ml
[7]; 10% PG + 0.015% diclosan + 0.04% amide
  d7 [CFU/ml]: 41,500 CFU/ml
[7]; 10% PG + 0.04% amide, no diclosan (Comparative 1a)
  d7 [CFU/ml]: >100,000 CFU/ml
[5]
  d7 [CFU/ml]: <10 CFU/ml
  d14 [CFU/ml]: 30 CFU/ml
  d21 [CFU/ml]: 190 CFU/ml
